Among the data in patent US20200131669A1, “CYCLIC PEPTIDE COMPOUND HAVING HIGH MEMBRANE PERMEABILITY, AND LIBRARY CONTAINING SAME” (Chugai Seiyaku Kabushiki Kaisha, priority 2017, published 2020) are Papp A→B values, retold here.

Positions of bridges follow the written chain, without caps; N, C: chain ends. Non-standard residues stand in square brackets, D forms with d. Residues, ends and D or L forms follow the SMILES beside them. *: point of attachment. Phe(4-CF3) = N[C@@H](Cc1ccc(C(F)(F)F)cc1)C(=O)O; 3Pal(6-NMe2) = CN(C)c1ccc(C[C@H](N)C(=O)O)cn1; Hyp = O=C(O)[C@@H]1C[C@@H](O)CN1; NMeF = CN[C@@H](Cc1ccccc1)C(=O)O; NMeL = CN[C@@H](CC(C)C)C(=O)O; NMeV = CN[C@H](C(=O)O)C(C)C; Pip = O=C(O)[C@@H]1CCCCN1; NMeA = CN[C@@H](C)C(=O)O; Piperidide = C1CCN(*)CC1; dNMeA = CN[C@H](C)C(=O)O; NBuGly = CCCCNCC(=O)O; Isopentyl = CC(C)CC*; Sar = CNCC(=O)O; tBu = CC(C)(C)*; Propyl = CCC*

The first data set is described as follows: Caco-2 membrane permeability, improved method as used in the following Examples (96-well, 20 to 24 h preincubation). In kind it is in vitro ADME. As to conditions: human, Caco-2, Caco-2. Put shortly: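 Papp (cm/sec) was derived from LC/MS of basal samples collected 180 min after apical dosing in FaSSIF/HBSS pH 6.0 with 1% DMSO, against a basal HBSS pH 7.4 receiver containing 4% BSA. Three-week Caco-2 cultures were first preincubated with compound in DMEM+FaSSIF at 37 °C for 20–24 h.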
(In general: Caco-2 monolayers are a common model of the intestinal barrier.)
A word on the Papp A→B: it is how fast a substance crosses the layer from the apical side. In turn, `CCO[C@@H]1C[C@H]2C(=O)N(C)[C@@H](CC(C)C)C(=O)N[C@@H]([C@@H](C)O)C(=O)N(C)[C@@H](CC(C)C)C(=O)N(C)[C@@H](C(C)C)C(=O)N[C@@H](Cc3ccc(C(F)(F)F)cc3)C(=O)N3CCCC[C@H]3C(=O)N[C@@H](CC(C)C)C(=O)N[C@H](C(=O)N3CCCCC3)CC(=O)N(C)[C@H](C)C(=O)N(C)[C@@H](CC(C)C)C(=O)N2C1` [pd377] ([dNMeA][NMeL][Hyp](Et)[NMeL]T[NMeL][NMeV][Phe(4-CF3)][Pip]LD-Piperidide; lactam N-11) showed a Papp A→B at 180 min of 1.4 ×10⁻⁶ cm/s.

The compound `CCCOC[C@@H]1NC(=O)[C@H](Cc2ccccc2)N(C)C(=O)[C@H](CC(C)C)N(C)C(=O)[C@H](CC(C)C)NC(=O)[C@H](C)N(C)C(=O)C[C@@H](C(=O)N2CCCCC2)NC(=O)[C@H](CC(C)C)N(C)C(=O)CN(C)C(=O)[C@H]([C@@H](C)O)NC(=O)[C@H](CC(C)C)N(C)C(=O)[C@H](Cc2ccccc2)N(C)C1=O` [pd329] ([NMeA]L[NMeL][NMeF]S(Propyl)[NMeF][NMeL]T[Sar][NMeL]D-Piperidide; lactam N-11) yielded a Papp A→B at 180 min of 4.2 ×10⁻⁶ cm/s.

As to `CCCCN1CC(=O)N(C)[C@@H](CC(C)C)C(=O)N[C@@H](Cc2ccc(N(C)C)nc2)C(=O)N(C)[C@@H](CC(C)C)C(=O)N[C@@H]([C@@H](C)O)C(=O)N(C)CC(=O)N(C)[C@@H](Cc2ccccc2)C(=O)N(C)[C@@H](CC(C)C)C(=O)N[C@@H](COCCC(C)C)C(=O)N(C)[C@@H](C)C(=O)N[C@H](C(=O)N2CCCCC2)CC1=O` [pd402] ([NBuGly][NMeL][3Pal(6-NMe2)][NMeL]T[Sar][NMeF][NMeL]S(Isopentyl)[NMeA]D-Piperidide; lactam N-11), the Papp A→B at 180 min is 1 ×10⁻⁶ cm/s.

Staying with this data set, now noted: human, Caco-2, Caco-2 (cm/sec).
In turn, `CC(C)C[C@@H]1NC(=O)[C@H](Cc2ccccc2)N(C)C(=O)[C@H](COC(C)(C)C)NC(=O)[C@H](Cc2ccccc2)N(C)C(=O)[C@H](C)N(C)C(=O)[C@H](CC(C)C)N(C)C(=O)[C@@H]2CCCN2C(=O)N[C@@H](C(=O)N2CCCCC2)NC(=O)[C@H](Cc2ccccc2)N(C)C(=O)[C@H]([C@@H](C)O)NC(=O)[C@H](CC(C)C)N(C)C1=O` [pd214] displayed a Papp A→B at 180 min of 1.2 ×10⁻⁶ cm/s.

`CC(C)C[C@H]1C(=O)N[C@@H](COC(C)(C)C)C(=O)N(C)[C@@H](Cc2ccccc2)C(=O)N(C)[C@@H](C(C)C)C(=O)N[C@H](C(=O)N2CCCCC2)CC(=O)N[C@H](C(C)C)C(=O)N(C)[C@@H](C)C(=O)N[C@@H](C(C)C)C(=O)N(C)[C@@H](CC(C)C)C(=O)N[C@@H](Cc2ccc(O)cc2)C(=O)N(C)CC(=O)N1C` [pd121] ([dV][NMeA]V[NMeL]Y[Sar][NMeL]S(tBu)[NMeF][NMeV]D-Piperidide; lactam N-11): the Papp A→B at 180 min amounted to 1 ×10⁻⁶ cm/s.

The compound `CC(C)C[C@@H]1NC(=O)[C@H](Cc2ccccc2)N(C)C(=O)[C@H](C(C)C)N(C)C(=O)C[C@@H](C(=O)N2CCCCC2)NC(=O)[C@H]([C@@H](C)O)NC(=O)[C@H](Cc2ccccc2)N(C)C(=O)[C@H](Cc2ccccc2)NC(=O)[C@H](Cc2ccccc2)N(C)C(=O)CN(C)C(=O)[C@H](C)N(C)C(=O)[C@H](CC(C)C)N(C)C1=O` [pd229] ([NMeV][NMeF]L[NMeL][NMeA][Sar][NMeF]F[NMeF]TD-Piperidide; lactam N-11) yielded a Papp A→B at 180 min of 0.41 ×10⁻⁶ cm/s.

`CC[C@H](C)[C@@H]1NC(=O)[C@H](CC(C)C)NC(=O)[C@H](CC(C)C)N(C)C(=O)[C@H](C)NC(=O)C[C@@H](C(=O)N2CCCCC2)NC(=O)[C@H](CC(C)C)N(C)C(=O)[C@H]([C@@H](C)O)NC(=O)[C@H](Cc2ccc(C(F)(F)F)cc2)NC(=O)[C@H](CC(C)C)N(C)C1=O` [pd144] (A[NMeL]LI[NMeL][Phe(4-CF3)]T[NMeL]D-Piperidide; lactam N-9) had a Papp A→B at 180 min of 2.1 ×10⁻⁶ cm/s.
